Patent publication US11795423B2, “Micro-fabricated multi-well chips for long term automated imaging of C. elegans growth and behavior” (THE TRUSTEES OF THE UNIVERSITY OF PENNSYLVANIA, priority 2014, dated 2023)

System: C. elegans
Experimental: NGM buffer is NGM agar without agar, peptone, or cholesterol.
A moat solution of 100 mM CuSO4 was prepared, which was approximately in osmotic equilibrium with the agar medium. The moat solution was added to the moats by pipette.

O=S(=O)([O-])[O-].[Cu+2] [copper sulfate]
worms escaped (after 3 days, moat containing 100 mM copper sulfate, NGM liquid moat as comparison (about 20%)): 5%
preventing animals from leaving their wells (fraction of worms escaping wells as a function of time) (moat containing 100 mM CuSO4, n=96, versus moat containing NGM buffer, FIG. 7b): superior
